In patent US20250108038A1 (priority 2023, published 2025):
Where “and” joins values, the source holds several entries; their conditions need not be identical. Equal entries are not always repeated.

Test system: Long Evans rats
Experiment: Behavioral satiety sequence (BSS)
Type: in vivo, Long Evans rat
Text: The Behavioural Satiety Sequence (BSS) is a technique used to evaluate physiological satiety. It is based on the expression of a sequence of behaviors including eating, grooming, locomotor activity, followed by resting, which are typically observed in rodents post-ingestion (Halford et al, 1998, Pharmacology Biochemistry and Behaviour. 61(2): 159-168). The BSS is a widely used model for determining the effects of novel pharmaceuticals on food intake and measures of satiety in rodents (Oliveira et al, 2011, Revista de Nutrição. 24(4) 619-628), and to discriminate the cause of reduced food intake following pharmacological manipulation. For example, treatments that may reduce food intake by non-specific mechanisms, such as immobility, malaise, and taste adulteration, will disrupt this sequence (Halford et al, 1998, Pharmacology Biochemistry and Behaviour. 61(2): 159-168).
Specifically, 12 male Long-Evans rats were food-deprived for 22 h with a 2 h feeding period each day. Rats were trained to consume daily food during the 2 h period over 25 days. The testing phase was initiated once the rats consistently consumed 16-18 g of food per day with ≤10% variance in amount of feed consumed. Feeding took place in designated individual boxes in a quiet room separate from the housing room. Continuous remote monitoring via video camera during feeding was used to assess the BSS. Food consumption was measured by weighing the total available food before and after the 2 h feeding window, correcting for spillage. Lorcaserin (1 mg/kg) was included as a reference control (Higgins et al, 2011, Neuropsychopharmacology. 37(5): 1177-1191). Subjects were tested using a repeated-measures, Latin square design with 2-3 days wash-out between treatment cycles.
On scheduled test days, animals were monitored remotely via video camera during the feeding access period. The occurrence of four mutually exclusive behaviors (eating/drinking, grooming, active, rest) were individually scored. Over the 2 h feeding period, behaviors were assessed every 30 seconds. Scores were compiled into 23 5 min timebins (timebin 24 was removed due to early removal of animals) and the frequency of each behavior within each timebin was calculated to determine a temporal frequency of each measure (Rodgers et al, 2010, Pharmacology Biochemistry and Behaviour. 97: 3-14). Percentage time was plotted for each behavioral sequence in each timebin to compare between treatment groups (Higgins et al, 2011, Neuropsychopharmacology. 37(5): 1177-1191).

[1] = 0.3 mg/kg, raw score per animal LT-1 to LT-12
[2] = 1 mg/kg, raw data per animal (LT-1 to LT-12)

## Clc1ccc(C2(OCC3OCCO3)c3ccccc3C3=NCCN32)cc1 (stereo not drawn) [Compound I-19]
[1]
  BSS scoring A (active), Time Bin 16 (75-80 TOTAL): 0 (6×) and 2 (3×) and 3 (3×)
  BSS scoring A (active), Time Bin 17 (80-85 TOTAL): 0 (3×) and 2 and 1 (5×) and 3 and 5 (2×)
  BSS scoring A (active), Time Bin 18 (85-90 TOTAL): 4 and 0 (5×) and 8 and 2 (2×) and 1 and 5 (2×)
  BSS scoring E (eating/drinking), Time Bin 13 (60-65 TOTAL): 10 (3×) and 7 (4×) and 8 (3×) and 9 and 6
  BSS scoring E (eating/drinking), Time Bin 14 (65-70 TOTAL): 9 (5×) and 6 and 10 (2×) and 7 and 8 (2×) and 2
  BSS scoring E (eating/drinking), Time Bin 15 (70-75 TOTAL): 9 and 6 (4×) and 4 and 1 and 7 (3×) and 5 and 3
  BSS scoring E (eating/drinking), Time Bin 16 (75-80 TOTAL): 10 (4×) and 6 (2×) and 9 and 8 and 7 (3×) and 5
  BSS scoring E (eating/drinking), Time Bin 17 (80-85 TOTAL): 10 (3×) and 5 and 4 (4×) and 7 (2×) and 9 (2×)
  BSS scoring E (eating/drinking), Time Bin 18 (85-90 TOTAL): 4 and 9 (3×) and 8 and 0 and 6 (2×) and 10 and 3 (2×) and 7
  BSS scoring G (grooming), Time Bin 13 (60-65 TOTAL): 0 (8×) and 1 (4×)
  BSS scoring G (grooming), Time Bin 14 (65-70 TOTAL): 0 (9×) and 1 (3×)
  BSS scoring G (grooming), Time Bin 15 (70-75 TOTAL): 0 (7×) and 1 (5×)
  BSS scoring G (grooming), Time Bin 16 (75-80 TOTAL): 0 (11×) and 1
  BSS scoring G (grooming), Time Bin 17 (80-85 TOTAL): 0 (8×) and 2 (2×) and 1 (2×)
  BSS scoring G (grooming), Time Bin 18 (85-90 TOTAL): 2 (2×) and 1 (8×) and 0 (2×)
  BSS scoring R (resting), Time Bin 13 (60-65 TOTAL): 0 (7×) and 2 (3×) and 1 (2×)
  BSS scoring R (resting), Time Bin 14 (65-70 TOTAL): 0 (7×) and 1 (4×) and 2
  BSS scoring R (resting), Time Bin 15 (70-75 TOTAL): 1 (3×) and 0 (6×) and 3 and 2 (2×)
  BSS scoring R (resting), Time Bin 16 (75-80 TOTAL): 0 (6×) and 2 (3×) and 1 (3×)
  BSS scoring R (resting), Time Bin 17 (80-85 TOTAL): 0 (7×) and 1 (2×) and 4 and 3 and 2
  BSS scoring R (resting), Time Bin 18 (85-90 TOTAL): 0 (6×) and 1 (5×) and 2
1 mg/kg, AVG of LT-1 to LT-12
  BSS scoring A (active), Time Bin 19 (90-95 TOTAL), AVG: 0.14
  BSS scoring A (active), Time Bin 20 (95-100 TOTAL), AVG: 0.10
  BSS scoring A (active), Time Bin 21 (100-105 TOTAL), AVG: 0.14
  BSS scoring A (active), Time Bin 22 (105-110 TOTAL), AVG: 0.15
  BSS scoring A (active), Time Bin 23 (110-115 TOTAL), AVG: 0.18
  BSS scoring A (active), Time Bin 24 (115-120 TOTAL), AVG: 0.15
  BSS scoring E (eating/drinking), Time Bin 19 (90-95 TOTAL), AVG: 0.58
  BSS scoring E (eating/drinking), Time Bin 20 (95-100 TOTAL), AVG: 0.73
  BSS scoring E (eating/drinking), Time Bin 21 (100-105 TOTAL), AVG: 0.61
  BSS scoring E (eating/drinking), Time Bin 22 (105-110 TOTAL), AVG: 0.63
  BSS scoring E (eating/drinking), Time Bin 23 (110-115 TOTAL), AVG: 0.59
  BSS scoring E (eating/drinking), Time Bin 24 (115-120 TOTAL), AVG: 0.41
  BSS scoring G (grooming), Time Bin 19 (90-95 TOTAL), AVG: 0.02
  BSS scoring G (grooming), Time Bin 20 (95-100 TOTAL), AVG: 0.01
  BSS scoring G (grooming), Time Bin 21 (100-105 TOTAL), AVG: 0.01
  BSS scoring G (grooming), Time Bin 22 (105-110 TOTAL), AVG: 0.08
  BSS scoring G (grooming), Time Bin 23 (110-115 TOTAL), AVG: 0.06
  BSS scoring G (grooming), Time Bin 24 (115-120 TOTAL), AVG: 0.02
  BSS scoring R (resting), Time Bin 19 (90-95 TOTAL), AVG: 0.26
  BSS scoring R (resting), Time Bin 20 (95-100 TOTAL), AVG: 0.17
  BSS scoring R (resting), Time Bin 21 (100-105 TOTAL), AVG: 0.24
  BSS scoring R (resting), Time Bin 22 (105-110 TOTAL), AVG: 0.14
  BSS scoring R (resting), Time Bin 23 (110-115 TOTAL), AVG: 0.18
  BSS scoring R (resting), Time Bin 24 (115-120 TOTAL), AVG: 0.26
[2]
  BSS scoring A (active), Time Bin 19 (90-95 TOTAL): 0 (6×) and 4 and 1 (3×) and 7 and 3
  BSS scoring A (active), Time Bin 20 (95-100 TOTAL): 0 (8×) and 6 and 3 and 1 and 2
  BSS scoring A (active), Time Bin 21 (100-105 TOTAL): 0 (7×) and 5 (3×) and 1 (2×)
  BSS scoring A (active), Time Bin 22 (105-110 TOTAL): 1 (3×) and 3 (3×) and 0 (4×) and 4 and 2
  BSS scoring A (active), Time Bin 23 (110-115 TOTAL): 8 and 0 (5×) and 4 (2×) and 2 and 1 (3×)
  BSS scoring A (active), Time Bin 24 (115-120 TOTAL): 6 and 0 (6×) and 1 and 3 and 2 (2×) and 4
  BSS scoring E (eating/drinking), Time Bin 19 (90-95 TOTAL): 10 (3×) and 8 (3×) and 5 and 9 and 0 (3×) and 2
  BSS scoring E (eating/drinking), Time Bin 20 (95-100 TOTAL): 10 (5×) and 6 and 3 and 8 and 2 and 9 (2×) and 0
  BSS scoring E (eating/drinking), Time Bin 21 (100-105 TOTAL): 10 (5×) and 2 (2×) and 5 and 3 (2×) and 8 and 0
  BSS scoring E (eating/drinking), Time Bin 22 (105-110 TOTAL): 9 and 6 (4×) and 10 and 5 and 7 (2×) and 8 and 3 (2×)
  BSS scoring E (eating/drinking), Time Bin 23 (110-115 TOTAL): 0 and 7 (4×) and 10 (2×) and 3 and 5 (2×) and 6 and 4
  BSS scoring E (eating/drinking), Time Bin 24 (115-120 TOTAL): 0 (3×) and 2 (2×) and 10 and 5 (3×) and 3 and 9 and 8
  BSS scoring G (grooming), Time Bin 19 (90-95 TOTAL): 0 (10×) and 1 (2×)
  BSS scoring G (grooming), Time Bin 20 (95-100 TOTAL): 0 (11×) and 1
  BSS scoring G (grooming), Time Bin 21 (100-105 TOTAL): 0 (11×) and 1
  BSS scoring G (grooming), Time Bin 22 (105-110 TOTAL): 0 (7×) and 1 (2×) and 2 (2×) and 3
  BSS scoring G (grooming), Time Bin 23 (110-115 TOTAL): 1 (3×) and 0 (7×) and 2 (2×)
  BSS scoring G (grooming), Time Bin 24 (115-120 TOTAL): 0 (10×) and 1 (2×)
  BSS scoring R (resting), Time Bin 19 (90-95 TOTAL): 0 (5×) and 2 (3×) and 1 and 9 and 8 and 7
  BSS scoring R (resting), Time Bin 20 (95-100 TOTAL): 0 (6×) and 4 and 1 (2×) and 2 and 5 and 7
  BSS scoring R (resting), Time Bin 21 (100-105 TOTAL): 0 (5×) and 3 (3×) and 2 (2×) and 6 and 10
  BSS scoring R (resting), Time Bin 22 (105-110 TOTAL): 0 (5×) and 1 (2×) and 4 (2×) and 2 (2×) and 3
  BSS scoring R (resting), Time Bin 23 (110-115 TOTAL): 1 (3×) and 3 (4×) and 0 (3×) and 2 and 4
  BSS scoring R (resting), Time Bin 24 (115-120 TOTAL): 4 (2×) and 7 (2×) and 0 (4×) and 2 and 5 and 1 (2×)
3 mg/kg, AVG of LT-1 to LT-12
  BSS scoring A (active), Time Bin 19 (90-95 TOTAL), AVG: 0.18
  BSS scoring A (active), Time Bin 20 (95-100 TOTAL), AVG: 0.19
  BSS scoring A (active), Time Bin 21 (100-105 TOTAL), AVG: 0.22
  BSS scoring A (active), Time Bin 22 (105-110 TOTAL), AVG: 0.20
  BSS scoring A (active), Time Bin 23 (110-115 TOTAL), AVG: 0.19
  BSS scoring A (active), Time Bin 24 (115-120 TOTAL), AVG: 0.27
